Test results: patent US20230303631A1, “METHOD FOR INDUCING IMMUNITY TO SARS-CoV-2” (RIKEN, priority 2020, published 2023)
Where no end group is shown, it is not given here.

Key:
[1] = test system: CD8 single-positive T cells; assay: Intracellular cytokine staining (IFN-γ, TNF-α) after restimulation with individual 15mer peptides; type: cell-based, human; conditions: for INF-γ production by CD8 single-positive T cells / TNF-α production by CD8 single-positive T cells: PBMCs of 4 healthy volunteers with HLA-A2402, cultured with 15mer mixture (each 10 μg/ml) and IL-2, restimulated with individual 15mer for 16 hours, FIG. 3
Method: Culture was carried out for 21 days in presence of IL-2 and a peptide and stimulation with a peptide was carried out in the presence of brefeldin and monensin in the same manner as in Example 1, and then, INF-γ production was examined. More specifically, to PBMCs of 4 healthy volunteers (HV) with HLA-A2402, a mixture of 15mer peptides was added such that the concentration of each peptide became 10 μg/ml. The PBMCs were cultured in the presence of IL-2. As a result, T cells having a binding affinity to a peptide in contact with them survive. Autogenous PBMCs were pulsed with a mixture of 15mer peptides every week, irradiated with 40 Gy and added to the above culture as a feeder. On Day 14 and 21, the mixture of 15mer peptides was further added. Thereafter, the culture obtained was pulsed with individual 15mer peptides and cultured for 16 hours in the presence of brefeldin and monensin to induce INF-γ production. Intracellular cytokine staining (anti-IFN-g-APC, anti-TNF-α-PE) were performed and peptide-specific cytokine producing CD8T cells were analyzed.

[2] = test system: CD8 single-positive T cells; conditions: PBMCs of healthy donors HD1 to HD5, peptide 10 μM, 21 days with IL-2, then 16 hours with peptide, brefeldin A and monensin; FIG. 1
[3] = test system: A24-C1R cells

| Sequence | INF-γ production by CD8 single-positive T cells [1] | TNF-α production by CD8 single-positive T cells [1] | induction of IFN-γ production in CD8 single-positive T cells (cytotoxic T cells) [2] | antigen-specific cytotoxic action of CTLs on peptide-pulsed A24-C1R cells [3] | ratio of INF-γ-positive, TNF-α-positive CD8T cells (stimulation of T cells) ([1]; comparison among the 15mer peptides, FIG. 4) |
| --- | --- | --- | --- | --- | --- |
| GKYEQYIKWPWYIWL [15mer-2] | increased | increased | – | – | – |
| QYIKWPWYI [pep #4, QYIKWPWYI] | – | – | strong induction of IFN-γ production | exhibited antigen-specific cytotoxic action | – |
| QYIKWPWYIWLGFIA [15mer-3] | increased | increased | – | – | stimulated T cells most satisfactorily |
| WPWYIWLGFIAGLIA [15mer-4] | increased | increased | – | – | – |
